This passage reports MIC and inhibition results from ChEMBL document CHEMBL3399970, “Synthesis of novel pleuromutilin derivatives. Part 1: preliminary studies of antituberculosis activity” (2015).

Usually MIC stands for the lowest concentration that inhibits growth of the organism. Usually inhibition stands for the change of the read-out against control, counted positive when it falls.

Structures are written as SMILES. Converted amounts (≈) assume the structure as drawn.

One assay concerns Mycobacterium tuberculosis. Description: Antimycobacterial activity against Mycobacterium tuberculosis H37Rv assessed as complete inhibition of proliferation. The assay is classed as functional.
For the molecule `C=C[C@]1(C)C[C@@H](OC(=O)CN(CC)Cc2ccc(N(CC)CC)cc2)[C@]2(C)[C@H](C)CC[C@]3(CCC(=O)[C@H]32)[C@@H](C)[C@@H]1O`, the MIC was 7.2 µM (≈ 4.08 µg/mL).

The next assay has as its system Mycobacterium tuberculosis. Put plainly: Antimycobacterial activity against Mycobacterium tuberculosis H37Rv assessed as inhibition at 20 uM. The assay is classed as functional.
Consider `C=C[C@]1(C)C[C@@H](OC(=O)CN(CC)Cc2ccccc2)[C@]2(C)[C@H](C)CC[C@]3(CCC(=O)[C@H]32)[C@@H](C)[C@@H]1O`, for which the inhibition at 20 µM turned out to be 100%.
On the same count and under the same terms, to `C=C[C@]1(C)C[C@@H](OC(=O)CN(CC)Cc2cccc(Cl)c2)[C@]2(C)[C@H](C)CC[C@]3(CCC(=O)[C@H]32)[C@@H](C)[C@@H]1O` belongs 99%; to `C=C[C@]1(C)C[C@@H](OC(=O)CN(CC)Cc2cccc(C)c2)[C@]2(C)[C@H](C)CC[C@]3(CCC(=O)[C@H]32)[C@@H](C)[C@@H]1O`, 16%.
Same read-out and setting: the same measure for `C=C[C@]1(C)C[C@@H](OC(=O)CN(CC)Cc2ccc(N(CC)CC)cc2)[C@]2(C)[C@H](C)CC[C@]3(CCC(=O)[C@H]32)[C@@H](C)[C@@H]1O`: 99%.
On the same count and under the same terms, the same measure for `C=C[C@]1(C)C[C@@H](OC(=O)CN(CC)Cc2ccc(Oc3ccccc3)cc2)[C@]2(C)[C@H](C)CC[C@]3(CCC(=O)[C@H]32)[C@@H](C)[C@@H]1O`: 100%; for `C=C[C@]1(C)C[C@@H](OC(=O)CN(Cc2ccccc2)Cc2ccc(Oc3ccccc3)cc2)[C@]2(C)[C@H](C)CC[C@]3(CCC(=O)[C@H]32)[C@@H](C)[C@@H]1O`: 101%; for `C=C[C@]1(C)C[C@@H](OC(=O)CN(Cc2ccc(Oc3ccccc3)cc2)C2CCCCC2)[C@]2(C)[C@H](C)CC[C@]3(CCC(=O)[C@H]32)[C@@H](C)[C@@H]1O`: 88%.
On to `C=C[C@]1(C)C[C@@H](OC(=O)CN(N2CCCCC2)S(=O)(=O)c2ccc(N)cc2)[C@]2(C)[C@H](C)CC[C@]3(CCC(=O)[C@H]32)[C@@H](C)[C@@H]1O`, for which the inhibition at 20 µM came out at 60%.
